We go through four compounds from PubChem BioAssay AID1259407 (Chemical Carcinogenesis Research Information System (CCRIS), 2018).

For this data set, the system named is CCRIS mutagenicity, Ames/micronucleus/aberration tests. Description: CCRIS mutagenicity studies.
The mark [1] stands for this setting: Test System: AMES SALMONELLA TYPHIMURIUM, Strain/Indicator: TA98, Metabolic Activation: NONE, Method: PREINCUBATION
[2] abbreviates: Test System: AMES SALMONELLA TYPHIMURIUM, Strain/Indicator: TA100, Metabolic Activation: NONE, Method: PREINCUBATION
Setting [3] is: Test System: AMES SALMONELLA TYPHIMURIUM, Strain/Indicator: TA1535, Metabolic Activation: NONE, Method: PREINCUBATION

Active and inactive are the calls of the source. No rule for the calls is given here.

In the case of `CN(C)c1ccc([C@H]2C[C@]3(C)[C@@H](CC[C@]3(O)CCCO)[C@@H]3CCC4=CC(=O)CCC4=C32)cc1`, the mutagenic call is “inactive; negative” (End Point: IN VITRO CHROMOSOMAL ABERRATIONS, Test System: HUMAN PERIPHERAL LYMPHOCYTES, Metabolic Activation: NONE); “inactive; negative” (End Point: IN VITRO CHROMOSOMAL ABERRATIONS, Test System: HUMAN PERIPHERAL LYMPHOCYTES, Metabolic Activation: RAT, LIVER, S-9, AROCLOR 1254); “inactive; negative” (End Point: IN VIVO MICRONUCLEUS, Test System: BONE MARROW POLYCHROMATIC ERYTHROCYTES, Species: MOUSE, Strain/Sex: NMRI/MALE, FEMALE, Route: INTRAGASTRIC); “inactive; negative” under setting [1]; “inactive; negative” (Test System: AMES SALMONELLA TYPHIMURIUM, Strain/Indicator: TA98, Metabolic Activation: NONE, Method: STANDARD PLATE); “inactive; negative” (Test System: AMES SALMONELLA TYPHIMURIUM, Strain/Indicator: TA98, Metabolic Activation: RAT, LIVER, S-9, AROCLOR 1254, Method: PREINCUBATION). For the same compound, the mutagenic call runs as follows: (Test System: AMES SALMONELLA TYPHIMURIUM, Strain/Indicator: TA98, Metabolic Activation: RAT, LIVER, S-9, AROCLOR 1254, Method: STANDARD PLATE) “inactive; negative”; under setting [2], “inactive; negative”; (Test System: AMES SALMONELLA TYPHIMURIUM, Strain/Indicator: TA100, Metabolic Activation: NONE, Method: STANDARD PLATE) “inactive; negative”; (Test System: AMES SALMONELLA TYPHIMURIUM, Strain/Indicator: TA100, Metabolic Activation: RAT, LIVER, S-9, AROCLOR 1254, Method: PREINCUBATION) “inactive; negative”; (Test System: AMES SALMONELLA TYPHIMURIUM, Strain/Indicator: TA100, Metabolic Activation: RAT, LIVER, S-9, AROCLOR 1254, Method: STANDARD PLATE) “inactive; negative”; under setting [3], “inactive; negative”. Also, the mutagenic call reads like this: (Test System: AMES SALMONELLA TYPHIMURIUM, Strain/Indicator: TA1535, Metabolic Activation: NONE, Method: STANDARD PLATE) “inactive; negative”; (Test System: AMES SALMONELLA TYPHIMURIUM, Strain/Indicator: TA1535, Metabolic Activation: RAT, LIVER, S-9, AROCLOR 1254, Method: PREINCUBATION) “inactive; negative”; (Test System: AMES SALMONELLA TYPHIMURIUM, Strain/Indicator: TA1535, Metabolic Activation: RAT, LIVER, S-9, AROCLOR 1254, Method: STANDARD PLATE) “inactive; negative”; (Test System: AMES SALMONELLA TYPHIMURIUM, Strain/Indicator: TA1537, Metabolic Activation: NONE, Method: PREINCUBATION) “inactive; negative”; (Test System: AMES SALMONELLA TYPHIMURIUM, Strain/Indicator: TA1537, Metabolic Activation: NONE, Method: STANDARD PLATE) “inactive; negative”; (Test System: AMES SALMONELLA TYPHIMURIUM, Strain/Indicator: TA1537, Metabolic Activation: RAT, LIVER, S-9, AROCLOR 1254, Method: PREINCUBATION) “inactive; negative”. Also, the mutagenic call by setting is: (Test System: AMES SALMONELLA TYPHIMURIUM, Strain/Indicator: TA1537, Metabolic Activation: RAT, LIVER, S-9, AROCLOR 1254, Method: STANDARD PLATE) “inactive; negative”; (Test System: AMES SALMONELLA TYPHIMURIUM, Strain/Indicator: TA1538, Metabolic Activation: NONE, Method: PREINCUBATION) “inactive; negative”; (Test System: AMES SALMONELLA TYPHIMURIUM, Strain/Indicator: TA1538, Metabolic Activation: NONE, Method: STANDARD PLATE) “inactive; negative”; (Test System: AMES SALMONELLA TYPHIMURIUM, Strain/Indicator: TA1538, Metabolic Activation: RAT, LIVER, S-9, AROCLOR 1254, Method: PREINCUBATION) “inactive; negative”; (Test System: AMES SALMONELLA TYPHIMURIUM, Strain/Indicator: TA1538, Metabolic Activation: RAT, LIVER, S-9, AROCLOR 1254, Method: STANDARD PLATE) “inactive; negative”; (Test System: CHINESE HAMSTER V-79, Strain/Indicator: V-79 (HGPRT)/6-THIOGUANINE, Metabolic Activation: NONE) “inactive; negative”. In addition, the mutagenic call (Test System: CHINESE HAMSTER V-79, Strain/Indicator: V-79 (HGPRT)/6-THIOGUANINE, Metabolic Activation: RAT, LIVER, S-9, AROCLOR 1254) is “inactive; negative”.

In the case of `NC(CS)C(=O)O` (stereo not given), for the setting “Test System: AMES SALMONELLA TYPHIMURIUM, Strain/Indicator: TA98, Metabolic Activation: RAT LIVER S-9, CHLOROPHENE, Method: STANDARD PLATE (COMPOUND HEATED AT 250 DEGREES CELSIUS FOR 20 MIN)”, the mutagenic call is “inactive; negative”.

For the compound `CC(C)Sc1cc(Cc2ccc(N)c(SC(C)C)c2)ccc1N`, the mutagenic call was “inactive; negative” under setting [1]; “active; positive” (Test System: AMES SALMONELLA TYPHIMURIUM, Strain/Indicator: TA98, Metabolic Activation: RAT, LIVER, S-9, PCB, Method: PREINCUBATION); “inactive; negative” under setting [2]; “active; positive” (Test System: AMES SALMONELLA TYPHIMURIUM, Strain/Indicator: TA100, Metabolic Activation: RAT, LIVER, S-9, PCB, Method: PREINCUBATION).

For the compound `CCCCC(CC)COCCCN` (stereo not given), the mutagenic call runs as follows: (Test System: AMES SALMONELLA TYPHIMURIUM, Strain/Indicator: TA97, Metabolic Activation: HAMSTER, LIVER, S-9, AROCLOR 1254 (10%), Method: PREINCUBATION) “inactive; negative”; (Test System: AMES SALMONELLA TYPHIMURIUM, Strain/Indicator: TA97, Metabolic Activation: HAMSTER, LIVER, S-9, AROCLOR 1254 (30%), Method: PREINCUBATION) “inactive; negative”; (Test System: AMES SALMONELLA TYPHIMURIUM, Strain/Indicator: TA97, Metabolic Activation: NONE, Method: PREINCUBATION) “inactive; negative”; (Test System: AMES SALMONELLA TYPHIMURIUM, Strain/Indicator: TA97, Metabolic Activation: RAT, LIVER, S-9, AROCLOR 1254 (10%), Method: PREINCUBATION) “inactive; negative”; (Test System: AMES SALMONELLA TYPHIMURIUM, Strain/Indicator: TA97, Metabolic Activation: RAT, LIVER, S-9, AROCLOR 1254 (30%), Method: PREINCUBATION) “inactive; negative”; (Test System: AMES SALMONELLA TYPHIMURIUM, Strain/Indicator: TA98, Metabolic Activation: HAMSTER, LIVER, S-9, AROCLOR 1254 (10%), Method: PREINCUBATION) “inactive; negative”. Further, the mutagenic call runs as follows: (Test System: AMES SALMONELLA TYPHIMURIUM, Strain/Indicator: TA98, Metabolic Activation: HAMSTER, LIVER, S-9, AROCLOR 1254 (30%), Method: PREINCUBATION) “inactive; negative”; under setting [1], “inactive; negative”; (Test System: AMES SALMONELLA TYPHIMURIUM, Strain/Indicator: TA98, Metabolic Activation: RAT, LIVER, S-9, AROCLOR 1254 (10%), Method: PREINCUBATION) “inactive; negative”; (Test System: AMES SALMONELLA TYPHIMURIUM, Strain/Indicator: TA98, Metabolic Activation: RAT, LIVER, S-9, AROCLOR 1254 (30%), Method: PREINCUBATION) “inactive; negative”; (Test System: AMES SALMONELLA TYPHIMURIUM, Strain/Indicator: TA100, Metabolic Activation: HAMSTER, LIVER, S-9, AROCLOR 1254 (10%), Method: PREINCUBATION) “inactive; negative”; (Test System: AMES SALMONELLA TYPHIMURIUM, Strain/Indicator: TA100, Metabolic Activation: HAMSTER, LIVER, S-9, AROCLOR 1254 (30%), Method: PREINCUBATION) “inactive; negative”. For the same compound, the mutagenic call is “inactive; negative” under setting [2]; “inactive; negative” (Test System: AMES SALMONELLA TYPHIMURIUM, Strain/Indicator: TA100, Metabolic Activation: RAT, LIVER, S-9, AROCLOR 1254 (10%), Method: PREINCUBATION); “inactive; negative” (Test System: AMES SALMONELLA TYPHIMURIUM, Strain/Indicator: TA100, Metabolic Activation: RAT, LIVER, S-9, AROCLOR 1254 (30%), Method: PREINCUBATION); “inactive; negative” (Test System: AMES SALMONELLA TYPHIMURIUM, Strain/Indicator: TA1535, Metabolic Activation: HAMSTER, LIVER, S-9, AROCLOR 1254 (10%), Method: PREINCUBATION); “inactive; negative” (Test System: AMES SALMONELLA TYPHIMURIUM, Strain/Indicator: TA1535, Metabolic Activation: HAMSTER, LIVER, S-9, AROCLOR 1254 (30%), Method: PREINCUBATION); “inactive; negative” under setting [3]. In addition, the mutagenic call reads like this: (Test System: AMES SALMONELLA TYPHIMURIUM, Strain/Indicator: TA1535, Metabolic Activation: RAT, LIVER, S-9, AROCLOR 1254 (10%), Method: PREINCUBATION) “inactive; negative”; (Test System: AMES SALMONELLA TYPHIMURIUM, Strain/Indicator: TA1535, Metabolic Activation: RAT, LIVER, S-9, AROCLOR 1254 (30%), Method: PREINCUBATION) “inactive; negative”.
